We go through 14 molecules from patent US20240189315A1, “Cyclic Pyridine Derivatives as cGAS Inhibitors” (Boehringer Ingelheim International GmbH, priority 2022, published 2024).

One test concerns the target Human cGAS enzyme (Homo sapiens (Human), UniProt Q8N884). The test is described as follows: Human cGAS enzyme assay (hcGAS IC50, in vitro), cGAMP formation by RapidFire MS.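 Also: recombinant human cGAS activated by 45 bp dsDNA with 30 µM each ATP and GTP, 90 min, cGAMP vs cyclic-di-GMP standard by MS, 8-point titration from 10 µM.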 Format: biochemical.
Test [1] has as its target cellular cGAS activity in baculovirus-stimulated THP1-Dual cells (Homo sapiens (Human), UniProt Q8N884). The test is described as follows: Human cGAS cell assay (THP1(vir) IC50): IFN induction in virus-stimulated THP1-Dual cells, IRF Lucia luciferase reporter.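 Also: Eight-point dilution series starting at 10 µM, 1% DMSO, 18 h at 37 °C, luminescence read-out, virus-free wells as 0% and DMSO-treated virus-stimulated wells as 100%.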 Format: cell-based.
For test [2], the system named is pathway directly downstream of cGAS in cGAMP-stimulated THP1-Dual cells. Put plainly: cGAMP stimulated counter cell assay (THP1(cGAMP) IC50): IFN induction in cGAMP-stimulated THP1-Dual cells. Format: cell-based, human. The settings on record: for pIC50: Homo sapiens, THP1-Dual; for Ratio THP(cGAMP) IC50/ THP(vir) IC50: selectivity for cGAS inhibition. An excerpt: 6.2 Method: Human cGAS Cell Assay and cGAMP Stimulated Counter Cell Assay (THP1(vir) IC50 and THP1(cGAMP) IC50)
THP1-Dual™ cells (InvivoGen #thpd-nfis) expressing IRF dependent Lucia luciferase reporter were used as basis for both assays. For the detection of cellular cGAS activity cells were stimulated by a baculovirus (pFastbac-1, Invitrogen, no coding insert) infection that delivers the cGAS enzyme stimulating double-stranded DNA (measurement of THP1(vir) IC50).
For the counter assay, cells were stimulated by cGAMP (SigmaAldrich #SML1232) to activate the identical pathway independent and directly downstream of cGAS (measurement of THP1(cGAMP) IC50). Pathway activity was monitored by measuring the Lucia luciferase activity induced by either DNA stimulated cGAS enzyme activity (measurement of THP1(vir) IC50) or by cGAMP directly (measurement of THP1(cGAMP) IC50, counter assay).
Compounds were delivered in 10 mM DMSO solution, serially diluted and transferred to the 384 well assay plate (Greiner #781201) using an Echo acoustic dispenser. Typically, 8 concentrations were used with the highest concentration at 10 μM in the final assay volume followed by ˜1:5 dilution steps. DMSO concentration was set to 1% in the final assay volume. The 384 well assay plate contained 21 test compounds (column 1-22), and DMSO in column 23 and 24.
Cells, cultivated according to manufacturer conditions, were harvested by centrifugation at 300 g/10 min and were then resuspended and diluted to 1.66E5 cells/ml in fresh cell culture medium (RPMI 1640 (Gibco #A10491-01), 10% FCS (Gibco #10500), 1× GlutaMax (Gibco #35050-061), 1× Pen/Strep solution (Gibco #15140-122), 100 μg/ml Normocin (InvivoGen #ant-nr), 100 μg/ml Zeocin (InvivoGen #ant-zn), 10 μg/ml Blasticidin S (Life Technologies #A11139-03)). The baculovirus solution was then added 1:200 (have varied according to virus batch) to the cells (measurement of THP1(vir) IC50). […] 30 μL of the cell/virus-mix were added to each well of the compound plate from column 1-23 via MultiDrop Combi dispenser (5000 cells/well). In column 24, 30 μl/5000 cells/well without virus were added as a low control.
The plates were then incubated for 18 h at 37° C. in a humidified incubator.
Following that, 15 μL of QuantiLuc detection reagent (InvivoGen #rep-qlcg5) were added to each well using a MultiDrop Combi. Measurement was done immediately after the addition using an EnVision reader (US-luminescence read-mode).
Data Evaluation and Calculation:
For data evaluation and calculation, the measurement of the low control was set as 0% control and the measurement of the high control was set as 100% control. The IC50 values were calculated using the standard 4 parameter logistic regression formula. Calculation: [y=(a−d)/(1+(x/c)^b)+d], a=low value, d=high value; x=conc M; c=IC50 M; b=slope

Test [3] has as its target cellular cGAS activity in dsDNA-stimulated human whole blood (Homo sapiens (Human), UniProt Q8N884). The test is described as follows: Human whole blood assay (hWB IC50): IFNα2a production after dsDNA transfection.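 Also: IFNα-2a in plasma measured by MSD electrochemiluminescence immunoassay after 22 h at 37 °C, 8-point dilution series from 10 µM top concentration, DMSO wells as controls.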 Format: cell-based.
Protocol: 6.3 Method: Human Whole Blood Assay (Human WB IC50) For the detection of cellular cGAS activity human whole blood was stimulated by transfection with double stranded DNA. Pathway activity was monitored by measuring the IFNα2α production.
Compounds were delivered as 10 mM DMSO solution and serially diluted and transferred to the 96-well cell culture plate (Corning #3595), prefilled with 20 μl OptiMEM (Gibco, #11058-021) in each well, using an Echo acoustic dispenser. Typically, 8 concentrations were used with the highest concentration at 10 μM in the final assay volume followed by ˜1:5 dilution steps. DMSO concentration was set to 0.1% in the final assay volume. The 96-well assay plate contained 10 test compounds, and DMSO in control wells.
Collection of human whole blood from 3 or more healthy donors (male or female, no medication for 7 days except contraceptive and thyroxine) as Na-Citrate blood (e.g. 3.8% in Monovettes from Sarstedt) was conducted in parallel. Whole blood was kept at room temperature for a maximum of 3 hours after collection until use in the assay.
160 μl of the whole blood samples was transferred to each well of the 96-well assay plates filled with compound/OptiMEM. All assay plates were prepared as duplicates with blood from different donors. Blood plates were kept at room temperature for 60 minutes and continuous shaking with 450 rpm, covered with the lid, but not sealed.
20 μl OptiMEM and 9.6:1 Fugene was added to all low control wells.
After covering assay plates with area seals and the lid, blood plates were kept at room temperature for 30 minutes and continuous shaking with 450 rpm, followed by an overnight incubation of 22 h at 37° C. in the incubator, without shaking.
For the detection of IFNα-2a in human plasma, the biotinylated capture antibody (Antibody set IFNA2, Meso Scale Diagnostics #B21VH-3, including coating and capture antibody) was diluted 1:17.5 in Diluent 100 (Meso Scale Diagnostics #R50AA-4), according to the manufacturer's directions. U-Plex MSD GOLD 96-well Small Spot Strepavidin SECTOR Plates (Meso Scale Diagnostics #L45SA-5) were coated with 25 μl diluted capture antibody. Coated plates were incubated for 60 min at room temperature under continuous shaking at 700 rpm. MSD IFNα-2a plates were washed three times with 150 μl wash buffer (1×HBSS, 0.05% Tween).
After blocking the plates with 100 μl block solution/well (1×HBSS with 0.2% Tween, 2% BSA) for 60 min at room temperature and continuous shaking at 700 rpm, plates were emptied as dry as possible by dumping just before continuing with the human plasma.
Whole Blood assay plates were centrifuged at 1600 rpm for 10 minutes. 25 μl of supernatant was transferred with a pipetting robot from each whole blood plate to the corresponding IFNα-2a plate.
Plates were sealed with microplate seals and kept at room temperature again under continuous shaking at 700 rpm for two hours.
Next MSD IFNα-2a plates were washed three times with 150 μl wash buffer (1×HBSS, 0.05% Tween), before adding 25 μl MSD SULFO-TAG IFNα-2a Antibody solution (1:100 diluted in Diluent 3 (Meso Scale Diagnostics #R50AP-2) to each well of the plates.
Afterwards plates were sealed with microplate seals and kept at room temperature again under continuous shaking at 700 rpm for two hours. Finally, MSD IFNα-2a plates were washed three times with 150 μl wash buffer (1×HBSS, 0.05% Tween). 150 μl 2× Read buffer was added to each well and plates were immediately measured with the MSD Sector S600 Reader using the vendor barcode.
For data evaluation and calculation,% control calculation of each well was based on the mean of high (DNA stimulated control) and mean of low (unstimulated control) controls by using the following formula:
The IC50-values were calculated using the standard 4 parameter logistic regression formula.
[4] abbreviates: Table 1, virus-stimulated THP1 cells, read-out: THP(vir) IC50.
Setting [5] is: Table 1, cGAMP-stimulated THP1 cells, read-out: THP(cGAMP) IC50.
The mark [6] stands for this setting: Table 1, dsDNA-stimulated human whole blood.

pIC50: −log10 of the molar value. Where two headings read alike, the source gives them in different places.

cellular cGAS activity in baculovirus-stimulated THP1-Dual cells, sequence (Q8N884 whole entry): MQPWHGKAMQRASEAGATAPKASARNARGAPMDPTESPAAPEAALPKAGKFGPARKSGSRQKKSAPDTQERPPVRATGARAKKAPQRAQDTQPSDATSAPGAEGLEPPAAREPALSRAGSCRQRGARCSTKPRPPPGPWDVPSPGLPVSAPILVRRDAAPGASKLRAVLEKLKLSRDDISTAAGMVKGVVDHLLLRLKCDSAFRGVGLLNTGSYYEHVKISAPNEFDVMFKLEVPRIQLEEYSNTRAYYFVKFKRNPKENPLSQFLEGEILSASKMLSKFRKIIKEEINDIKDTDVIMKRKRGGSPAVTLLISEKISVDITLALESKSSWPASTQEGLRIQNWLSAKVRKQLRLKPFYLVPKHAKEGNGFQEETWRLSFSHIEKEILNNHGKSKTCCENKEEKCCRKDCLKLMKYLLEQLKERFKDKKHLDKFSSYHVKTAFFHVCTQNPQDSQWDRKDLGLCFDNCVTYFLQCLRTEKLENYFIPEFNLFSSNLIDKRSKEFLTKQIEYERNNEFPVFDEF
Human cGAS enzyme, sequence (Q8N884 whole entry): as above
cellular cGAS activity in dsDNA-stimulated human whole blood, sequence (Q8N884 whole entry): as above

`O=C(O)[C@@H]1C[C@H]2CN1c1nc(nc3c1oc1ccccc13)C(F)(F)CCCCCC(=O)N1CCC(F)(CC1)c1cc(Cl)cnc1O2` [Example 07]: the pIC50 against Human cGAS enzyme (Table 1) is 7.00; in test [1] (setting [4]), 6.49; in test [2] (setting [5]), 4.92; in test [3] (setting [6]), 6.12. Besides, the “Ratio THP(cGAMP) IC50/ THP(vir) IC50” value in test [2] (Table 1) came out at 37.
For the molecule `C[C@H]1CN2CC[C@]1(F)c1cc(Cl)cnc1O[C@H]1C[C@@H](C(=O)O)N(C1)c1nc(nc3c1oc1ccccc13)C(F)(F)OCCCCC2=O` [Example 15, (1R,9S,11S,34S)-4-chloro-1,25,25-trifluoro-34-methyl-31-oxo-8,15,26-trioxa-6,12,23,32,37-pentaazaheptacyclo[30.2.2.1^9,12.1^13,24.0^2,7.0^14,22.0^16,21]octatriaconta-2(7),3,5,13(37),14(22),16(21),17,19,23-nonaene-11-carboxylic acid], the pIC50 on Human cGAS enzyme (Table 1) was 7.96; in test [1] (setting [4]) it was 7.15; in test [2] (setting [5]), 5.09; in test [3] (setting [6]) it was 7.33. For the same molecule, the “Ratio THP(cGAMP) IC50/ THP(vir) IC50” value in test [2] (Table 1) amounted to 117.
With `C[C@H]1CN2CC[C@]1(F)c1cc(Cl)cnc1O[C@H]1C[C@@H](C(=O)O)N(C1)c1nc(nc3c1oc1ccccc13)CCCCOCC2=O` [Example 27], the pIC50 at Human cGAS enzyme (Table 1) was 8.30; in test [1] (setting [4]), 7.08; in test [2] (setting [5]) it was 5.77; in test [3] (setting [6]), 7.48. Besides, in test [2] (Table 1), the “Ratio THP(cGAMP) IC50/ THP(vir) IC50” value came out at 20.
With `CC(C)(C(=O)N[C@H]1C[C@@H](C(=O)O)N(c2nc(C(F)(F)F)nc3c2oc2ccccc23)C1)c1cn[nH]c1` [compound 58], the pIC50 at Human cGAS enzyme (Table 2, compounds from WO 2020/142729 re-tested in the applicant's assay) was 6.49; in test [1] (Table 2, compounds from WO 2020/142729, read-out: THP1(vir) IC50), 4.68; in test [2] (Table 2, compounds from WO 2020/142729, read-out: THP1(cGAMP) IC50) it was 4.64; in test [3] (Table 2, compounds from WO 2020/142729), less than 5.00.
`C[C@H]1CN2CC[C@]1(F)c1cc(Cl)cnc1O[C@H]1C[C@@H](C(=O)O)N(C1)c1nc(nc3c1oc1ccccc13)CC(=O)NCCOC2=O` [Example 02, (1R,9S,11S,34S)-4-chloro-1-fluoro-34-methyl-26,31-dioxo-8,15,30-trioxa-6,12,23,27,32,37-hexaazaheptacyclo[30.2.2.1^9,12.1^13,24.0^14,22..0^16,21]octatriaconta-2,4,6,13(37),14(22),16(21),17,19,23-nonaene-11-carboxylic acid]: the pIC50 against Human cGAS enzyme (Table 1) was 7.77; in test [1] (setting [4]), 6.96; in test [2] (setting [5]), less than 5.00; in test [3] (setting [6]), 6.94. In test [2] (Table 1), the “Ratio THP(cGAMP) IC50/ THP(vir) IC50” value came to 94.
Taken in the same sequence, the figures for `C[C@H]1CN2CC[C@]1(F)c1cccnc1O[C@H]1C[C@@H](C(=O)O)N(C1)c1nc(nc3c1oc1ccccc13)CCCOCCC2=O` [Example 24, (1R,9S,11S,34S)-1-fluoro-34-methyl-31-oxo-8,15,28-trioxa-6,12,23,32,37-pentaazaheptacyclo-[30.2.2.1^9,12.1^13,24.0^2,7.0^14,22.0^16,21]octatriaconta-2,4,6,13(37),14(22),16(21),17,19,23-nonaene-11-carboxylic acid] were 7.55, 6.19, less than 5.00, 6.10 and 16.
Taken in the same sequence, the figures for `C[C@H]1CN2CC[C@]1(F)c1cc(Cl)cnc1O[C@H]1C[C@@H](C(=O)O)N(C1)c1nc(nc3c1oc1ccccc13)COCCCC(F)(F)C2=O` [Example 10, (1R,9S,11S,34S)-4-chloro-1,30,30-trifluoro-34-methyl-31-oxo-8,15,26-trioxa-6,12,23,32,37-pentaazaheptacyclo[30.2.2.1^9,12.1^13,24.0^2,7.0^14,22.0^16,21]octatriaconta-2,4,6,13,16,18,20,22,24(37)-nonaene-11-carboxylic acid] were 7.17, 6.72, 4.92, 6.47 and 61.
On the same counts, the results for `C[C@H]1CN2CC[C@]1(F)c1cc(Cl)cnc1O[C@H]1C[C@@H](C(=O)O)N(C1)c1nc(nc3c1oc1ccccc13)CCOCCOC2=O` [Example 34, (1R,9S,11S,34S)-4-chloro-1-fluoro-34-methyl-31-oxo-8,15,27,30-tetraoxa-6,12,23,32,37-pentaaza-heptacyclo[30.2.2.1^9,12.1^13,24.0^2,7.0^14,22.0^16,21]octatriaconta-2,4,6,13(37),14(22),16(21),17,19,23-nonaene-11-carboxylic acid] are 8.10, 7.44, 4.80, 7.39 and 450.
For `C[C@H]1CN2CC[C@]1(F)c1cc(Cl)cnc1O[C@H]1C[C@@H](C(=O)O)N(C1)c1nc(nc3c1oc1ccccc13)CCOCCCC2=O` [Example 16], the pIC50 against Human cGAS enzyme (Table 1) is 7.96; in test [1] (setting [4]) it was 7.44; in test [2] (setting [5]) it was 5.18; in test [3] (setting [6]), 7.00. In test [2] (Table 1), the “Ratio THP(cGAMP) IC50/ THP(vir) IC50” value turned out to be 184.
On the same counts, the results for `C[C@H]1CN2CC[C@]1(F)c1cc(Cl)cnc1O[C@H]1C[C@@H](C(=O)O)N(C1)c1nc(nc3c1oc1ccccc13)COCCCCC2=O` [Example 08, (1R,9S,11S,34S)-4-chloro-1-fluoro-34-methyl-31-oxo-8,15,26-trioxa-6,12,23,32,37-pentaazabestacyclo[30.2.2.1^9,12.1^13,24.0^2,7.0^14,22.0^16,21]octatriaconta-2,4,6,13(37),14(22),16(21),17,19,23-nonaene-11-carboxylic acid] are 7.66, 6.85, less than 5.00, 7.36 and 69.
Taken in the same sequence, the figures for `C[C@H]1CN2CC[C@]1(F)c1cc(Cl)cnc1O[C@H]1C[C@@H](C(=O)O)N(C1)c1nc(nc3c1oc1cc(F)ccc13)CCCCOCC2=O` [Example 30] were 8.15, 7.15, 5.33, 7.66 and 67.
On the same counts, the results for `C[C@H]1CN2CC[C@]1(F)c1cc(Cl)cnc1O[C@H]1C[C@@H](C(=O)O)N(C1)c1nc(nc3c1oc1cc(Cl)ccc13)C(F)(F)CCCOCC2=O` [Example 33] are 8.30, 8.52, 5.19, 7.80 and 2085.
Regarding `CC(=O)c1cnc2c(c1)[C@@]1(F)CCN(C[C@@H]1C)C(=O)CCCOCCc1nc(c3oc4ccccc4c3n1)N1C[C@H](C[C@H]1C(=O)O)O2` [Example 19], the pIC50 against Human cGAS enzyme (Table 1) is 8.10; in test [1] (setting [4]), 7.14; in test [2] (setting [5]), less than 5.00; in test [3] (setting [6]), 6.84. Besides, the “Ratio THP(cGAMP) IC50/ THP(vir) IC50” value in test [2] (Table 1) was found to be 136.
On the same counts, the results for `C[C@H]1CN2CC[C@]1(F)c1cc(Cl)cnc1O[C@H]1C[C@@H](C(=O)O)N(C1)c1nc(nc3c1oc1cc(F)ccc13)C(F)(F)CCCOCC2=O` [Example 32] are 8.30, 8.10, less than 5.00, 8.05 and 1190.
